# According to PMC11577813, “Eurasian spruce bark beetle detects lanierone using a highly expressed specialist odorant receptor, present in several functional sensillum types” (BMC Biology, 2024):
# Biological target: T1, ItypOR36 (with ItypOrco) (Ips typographus, UniProt A0AAU6S471)
# T1 construct: gene OR36; heteromeric OR/Orco ligand-gated ion channel; GenBank id is for ItypOR36; with Odorant receptor coreceptor
# T1 sequence (A0AAU6S471 1-390): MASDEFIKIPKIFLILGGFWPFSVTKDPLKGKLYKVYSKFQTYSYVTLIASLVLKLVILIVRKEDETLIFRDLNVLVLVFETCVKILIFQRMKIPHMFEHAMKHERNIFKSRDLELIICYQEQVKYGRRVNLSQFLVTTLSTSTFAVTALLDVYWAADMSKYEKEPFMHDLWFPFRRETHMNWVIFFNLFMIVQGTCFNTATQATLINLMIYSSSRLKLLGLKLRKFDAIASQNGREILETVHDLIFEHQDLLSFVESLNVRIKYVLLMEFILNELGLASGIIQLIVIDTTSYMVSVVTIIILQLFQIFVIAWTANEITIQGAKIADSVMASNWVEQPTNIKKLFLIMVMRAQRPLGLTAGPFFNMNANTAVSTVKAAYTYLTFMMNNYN
# Test: Fluo4-AM calcium fluorescence in HEK293 cells, dose-response
# Assay type: cell-based
# Conditions: agonist; co-expressed ItypOrco; doxycycline-induced; DPBS with 1 mM probenecid, pH 7.1
compound,measurement,value
"CC1=CC(C)(C)C=C(O)C1=O [lanierone, 2-hydroxy-4,4,6-trimethyl-2,5-cyclohexadien-l-one]",EC50,790 nM
